These compounds were tested on Beta-TC6 (assay: Increase in insulin release in mouse BetaTC6 cells assessed as relative insulin release activity at 10 uM incubated for 2 to 4 hrs by FRET based HTRF assay relative to sunitinib).
Assay type: functional

SMILES | Activity
CN(C)c1cccc(-c2ccc3ncc(-c4cccs4)n3n2)c1 | 20%
CS(=O)(=O)c1cccc(-c2ccc3nnc(-c4ccccn4)n3c2)c1 | 20%
CN(C)c1cccc(-c2cnc3cnc(-c4ccncc4)cn23)c1 | 20%
COc1ccc(-c2ccc3nnc(-c4ccoc4)n3c2)cc1 | 50%
OCc1ccc(-c2cnc3cnc(-c4ccco4)cn23)cc1 | 20%
COc1cc(C#Cc2ccc3nnc(-c4ccc(OCCCN(C)C)cc4)n3c2)cc(OC)c1 | 20%
CN(C)c1ccc(-c2cnc3cnc(-c4ccccc4N(C)C)cn23)cc1 | 20%
CN(C)C(=O)c1ccc(-c2cnc3cnc(-c4ccc5c(ccn5C)c4)cn23)cc1 | 20%
COc1cc(OC)cc(-c2cn3c(-c4cccs4)cnc3cn2)c1 | 20%
CN1CCN(C(=O)c2cccc(-c3ccc4nnc(-c5ccc6nccnc6c5)n4c3)c2)CC1 | 20%
COc1cc(-c2cnc3ccc(NCc4cccc(Cl)c4)nn23)ccc1O | 20%
COc1cccc(CC(=O)Nc2cnc3cnc(-c4ccc(Oc5ccccc5)cc4)cn23)c1 | 10%
CN(C)c1cccc(-c2ccc3nnc(-c4cscn4)n3c2)c1 | 50%
COc1cncc(-c2cnc3ccc(Cc4ccc(F)cc4)nn23)c1 | 20%
c1csc(-c2cnc3cnc(-c4ccncc4)cn23)c1 | 20%
Nc1cccc(-c2cn3c(NC(=O)Cc4ccc(F)c(F)c4)cnc3cn2)c1 | 10%
Oc1cccc(-c2nnc3ccc(-c4cccc5ncccc45)cn23)c1 | 20%
CC(=O)c1cccc(-c2cnc3cnc(-c4cccnc4)cn23)c1 | 20%
CN1CCN(C(=O)c2cccc(-c3cnc4cnc(-c5ccc(CNc6ccccc6)cc5)cn34)c2)CC1 | 10%
OCc1cccc(-c2ccc3nnc(-c4ccccn4)n3c2)c1 | 20%
c1cc2cc(-c3ccc4nnc(-c5cscn5)n4c3)ccc2[nH]1 | 50%
c1csc(-c2cnc3cnc(-c4ccsc4)cn23)c1 | 50%
c1nc(-c2nnc3ccc(-c4ccc(N5CCOCC5)cc4)cn23)cs1 | 50%
CN(C)CC#Cc1ccc2nnc(-c3ccccc3)n2c1 | 10%
c1ccc(-c2ccc3ncc(-c4ccc5c(c4)OCO5)n3n2)cc1 | 20%
CC(C)c1cccc(-c2ccc3nnc(-c4cccnc4)n3c2)c1 | 50%
FC(F)(F)Oc1cccc(-c2cnc3cnc(-c4cccnc4)cn23)c1 | 20%

SMILES | Activity
C(=C\c1cnc2cccnn12)/c1ccccc1 | 20%
c1csc(-c2cn3c(-c4ccsc4)cnc3cn2)c1 | 50%
CNc1ccc2ncc(/C=C\CCCO)n2n1 | 10%
COc1cc(OC)cc(-c2cnc3cnc(-c4cccc(OC(C)C)c4)cn23)c1 | 20%
COc1ccc(-c2ccc3ncc(-c4cccc(Cl)c4)n3n2)cc1OC | 20%
N#Cc1ccc(-c2cnc3cnc(-c4ccsc4)cn23)cc1 | 20%
Clc1ccc(-c2cnc3cnc(-c4ccsc4)cn23)cc1 | 50%
OCc1cccc(-c2cnc3ccc(-c4cccc(Oc5ccccc5)c4)nn23)c1 | 20%
COc1cccc(-c2cn3c(NC(=O)Cc4ccsc4)cnc3cn2)c1 | 20%
CN(C)c1ccc(-c2ccc3nnc(-c4cccnc4)n3c2)cc1 | 50%
O=C(NCCO)c1cccc(-c2cn3c(-c4cccc(OC(F)(F)F)c4)cnc3cn2)c1 | 20%
CSc1ccccc1-c1cnc2cccnn12 | 50%
Clc1cccc(-c2cn3c(-c4cccs4)cnc3cn2)c1 | 20%
Fc1cccc(-c2ccc3ncc(-c4ccc5c(c4)OCO5)n3n2)c1 | 20%
CN(C)CCCOc1ccc(-c2cn3c(-c4ccc(N(C)C)cc4)cnc3cn2)cn1 | 50%
Clc1cccc(-c2cn3c(-c4ccc5c(c4)OCO5)cnc3cn2)c1 | 50%
COc1cccc(CC(=O)Nc2cnc3cnc(-c4cccs4)cn23)c1 | 20%
Fc1ccc(-c2cn3c(-c4ccsc4)cnc3cn2)cc1Cl | 20%
CNC(=O)c1ccc(-c2ccc3nnc(-c4ccc(OCCCN(C)C)cc4)n3c2)cc1 | 20%
CC(=O)Nc1cccc(-c2ccc3nnc(-c4ccc5nccnc5c4)n3c2)c1 | 50%
CS(=O)(=O)Nc1cccc(-c2cn3c(-c4cccnc4)cnc3cn2)c1 | 20%
CS(=O)(=O)Nc1cccc(-c2cnc3ccc(Cc4ccc(F)cc4)nn23)c1 | 10%
Fc1ccc(-c2ccc3ncc(-c4cccs4)n3n2)cc1Cl | 20%
CN(C)c1ccccc1-c1cn2c(-c3cccs3)cnc2cn1 | 20%
COc1cc(-c2ccc3nnc(-c4cccc(C(F)(F)F)c4)n3c2)cc(OC)c1OC | 50%
O=C(NC1CCCC1)c1ccc(-c2cn3c(-c4ccc(CO)cc4)cnc3cn2)cc1 | 20%
CCOc1cccc(-c2cn3c(-c4ccc(O)c(OC)c4)cnc3cn2)c1 | 50%

SMILES | Activity
O=C(Nc1cnc2cnc(-c3cnn(Cc4ccccc4)c3)cn12)C1CCC1 | 20%
CC(=O)Nc1cccc(-c2cn3c(-c4ccc(F)c(Cl)c4)cnc3cn2)c1 | 20%
CN(C)CCCOc1ccc(-c2nnc3ccc(-c4ccc(Cl)cc4)cn23)cc1 | 20%
Cc1cccc(-c2cn3c(-c4ccc(CCC(=O)O)cc4)cnc3cn2)c1C | 50%
COc1ccc(-c2nnc3ccc(-c4ccc(S(C)(=O)=O)cc4)cn23)cc1OC | 10%
COc1cccc(-c2cn3c(-c4cccc(O)c4)cnc3cn2)c1F | 20%
CC(=O)Nc1cccc(-c2cnc3ccc(NCc4ccc(F)cc4)nn23)c1 | 10%
CS(=O)(=O)Nc1cccc(-c2cn3c(-c4cccs4)cnc3cn2)c1 | 20%
O=C(O)CCc1ccc(-c2cnc3cnc(-c4cccc(Cl)c4)cn23)cc1 | 20%
c1csc(-c2cn3c(-c4ccc5c(c4)OCO5)cnc3cn2)c1 | 50%
Clc1cccc(-c2ccc3nnc(-c4ccc5c(c4)OCO5)n3c2)c1 | 20%
CN(C)C(=O)c1cccc(-c2ccc3nnc(-c4ccc5nccnc5c4)n3c2)c1 | 50%
COc1ccc(-c2cnc3ccc(NCc4ccccn4)nn23)cc1OC | 20%
CN(C)c1ccc(-c2ccc3ncc(-c4ccc(CO)cc4)n3n2)cc1 | 50%
COc1ccc(-c2nnc3ccc(-c4cccs4)cn23)cc1OC | 50%
O=C(NCCO)c1ccc(-c2cnc3cccnn23)cc1 | 10%
N#Cc1ccc(-c2cnc3cnc(-c4ccc(Cl)cc4)cn23)cc1 | 50%
CN(C)C(=O)c1cccc(-c2cn3c(-c4ccc(N(C)C)cc4)cnc3cn2)c1 | 20%
CN(C)c1cccc(-c2cnc3cnc(-c4cccs4)cn23)c1 | 20%
c1cncc(-c2cnc3ccc(-c4cccs4)nn23)c1 | 20%
c1ccc(Oc2ccccc2-c2cn3c(-c4ccncc4)cnc3cn2)cc1 | 20%
N#Cc1ccc(-c2cnc3cnc(-c4ccccc4)cn23)cc1 | 20%
FC(F)(F)Oc1cccc(-c2ccc3nnc(-c4ccncc4)n3c2)c1 | 20%
C(#Cc1ccccn1)c1ccc2nnc(-c3ccccc3)n2c1 | 50%
Fc1cccc(-c2cnc3cnc(-c4ccc(N5CCNCC5)cc4)cn23)c1 | 10%
